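Method: 48-hour compound exposure of cells in 96-well plates, five concentrations, linear interpolation of endpoints. GI50: concentration for 50% inhibition of growth.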 Active and inactive are the calls of the source. Cut-off read from the data, not from the text of the source: active = GI50 up to about 1.1 µM and inactive = higher.
Legend:
Assay in all cases: NCI anticancer screen, dose series, 48 h
786-0 = system: 786-0
A549 = system: A549
ACHN = system: ACHN
CAKI-1 = system: CAKI-1
CCRF-CEM = system: CCRF-CEM
COLO 205 = system: COLO 205
DU-145 = system: DU-145
EKVX = system: EKVX
HCC 2998 = system: HCC 2998
HCT-116 = system: HCT-116
HL-60 = system: HL-60
HOP-62 = system: HOP-62
HOP-92 = system: HOP-92
HT-29 = system: HT-29
Hs-578T = system: Hs-578T
IGROV-1 = system: IGROV-1
K562 = system: K562
KM12 = system: KM12
LOX IMVI = system: LOX IMVI
M14 = system: M14
MCF7 = system: MCF7
MDA-MB-231 = system: MDA-MB-231
MDA-MB-435 = system: MDA-MB-435
MDA-N = system: MDA-N
MOLT-4 = system: MOLT-4
Malme-3M = system: Malme-3M
NCI-H226 = system: NCI-H226
NCI-H23 = system: NCI-H23
NCI-H460 = system: NCI-H460
NCI-H522 = system: NCI-H522
NCI/ADR-RES = system: NCI/ADR-RES
OVCAR-3 = system: OVCAR-3
OVCAR-4 = system: OVCAR-4
OVCAR-5 = system: OVCAR-5
OVCAR-8 = system: OVCAR-8
PC-3 = system: PC-3
RPMI-8226 = system: RPMI-8226
RXF 393 = system: RXF 393
SF-268 = system: SF-268
SF-295 = system: SF-295
SF-539 = system: SF-539
SK-MEL-28 = system: SK-MEL-28
SK-MEL-5 = system: SK-MEL-5
SK-OV-3 = system: SK-OV-3
SN12C = system: SN12C
SNB-19 = system: SNB-19
SNB-75 = system: SNB-75
SR = system: SR
SW-620 = system: SW-620
T47D = system: T47D
TK-10 = system: TK-10
UACC-257 = system: UACC-257
UACC-62 = system: UACC-62
UO-31 = system: UO-31
HCT-15 = system: HCT-15
SK-MEL-2 = system: SK-MEL-2
U-251 = system: U-251

Compound: CC1(C)C=C(/C=N/Nc2ccc(Br)cc2)C(C#N)=C(O)C1(C#N)C#N
- GI50 (786-0): 47.2 µM (inactive)
- GI50 (A549): 39.2 µM (inactive)
- GI50 (ACHN): 33.3 µM (inactive)
- GI50 (CAKI-1): 36.1 µM (inactive)
- GI50 (CCRF-CEM): 35.8 µM (inactive)
- GI50 (COLO 205): 19.8 µM (inactive)
- GI50 (DU-145): 66.7 µM (inactive)
- GI50 (EKVX): 54.3 µM (inactive)
- GI50 (HCC 2998): 24.5 µM (inactive)
- GI50 (HCT-116): 32.2 µM (inactive)
- GI50 (HL-60): 26.1 µM (inactive)
- GI50 (HOP-62): 63 µM (inactive)
- GI50 (HOP-92): 22.4 µM (inactive)
- GI50 (HT-29): 40.8 µM (inactive)
- GI50 (Hs-578T): 63.8 µM (inactive)
- GI50 (IGROV-1): 81.8 µM (inactive)
- GI50 (K562): 17.7 µM (inactive)
- GI50 (KM12): 29.9 µM (inactive)
- GI50 (LOX IMVI): 64.6 µM (inactive)
- GI50 (M14): 26.6 µM (inactive)
- GI50 (MCF7): 26.5 µM (inactive)
- GI50 (MDA-MB-231): 39.5 µM (inactive)
- GI50 (MDA-MB-435): 39.7 µM (inactive)
- GI50 (MDA-N): 42.2 µM (inactive)
- GI50 (MOLT-4): 29.2 µM (inactive)
- GI50 (Malme-3M): 89.7 µM (inactive)
- GI50 (NCI-H226): 88.3 µM (inactive)
- GI50 (NCI-H23): 46 µM (inactive)
- GI50 (NCI-H460): 33.1 µM (inactive)
- GI50 (NCI-H522): 75.9 µM (inactive)
- GI50 (NCI/ADR-RES): 45.2 µM (inactive)
- GI50 (OVCAR-3): 31.9 µM (inactive)
- GI50 (OVCAR-4): 40 µM (inactive)
- GI50 (OVCAR-5): > 100 µM (inactive)
- GI50 (OVCAR-8): 52.5 µM (inactive)
- GI50 (PC-3): 21.2 µM (inactive)
- GI50 (RPMI-8226): 38.5 µM (inactive)
- GI50 (RXF 393): 33.8 µM (inactive)
- GI50 (SF-268): 40.9 µM (inactive)
- GI50 (SF-295): > 100 µM (inactive)
- GI50 (SF-539): 55.2 µM (inactive)
- GI50 (SK-MEL-28): 81.8 µM (inactive)
- GI50 (SK-MEL-5): > 100 µM (inactive)
- GI50 (SK-OV-3): 57.8 µM (inactive)
- GI50 (SN12C): 59.8 µM (inactive)
- GI50 (SNB-19): > 100 µM (inactive)
- GI50 (SNB-75): 66.4 µM (inactive)
- GI50 (SR): 26.4 µM (inactive)
- GI50 (SW-620): 36.5 µM (inactive)
- GI50 (T47D): 40.9 µM (inactive)
- GI50 (TK-10): 83.6 µM (inactive)
- GI50 (UACC-257): 31.8 µM (inactive)
- GI50 (UACC-62): 38.7 µM (inactive)
- GI50 (UO-31): 22.8 µM (inactive)

Compound: COc1cccc(C(=O)Oc2ccc(OS(=O)(=O)c3ccc(C)cc3)cc2)c1C#N
- GI50 (786-0): 86.9 µM (inactive)
- GI50 (A549): 23.6 µM (inactive)
- GI50 (ACHN): 94 µM (inactive)
- GI50 (CAKI-1): > 100 µM (inactive)
- GI50 (CCRF-CEM): 47.5 µM (inactive)
- GI50 (COLO 205): 71.4 µM (inactive)
- GI50 (DU-145): 93.1 µM (inactive)
- GI50 (EKVX): 59.8 µM (inactive)
- GI50 (HCT-116): 41.7 µM (inactive)
- GI50 (HCT-15): 74 µM
- GI50 (HL-60): 34.1 µM (inactive)
- GI50 (HOP-62): > 100 µM (inactive)
- GI50 (HOP-92): 41.6 µM (inactive)
- GI50 (HT-29): 78.5 µM (inactive)
- GI50 (Hs-578T): 86.7 µM (inactive)
- GI50 (IGROV-1): 29 µM (inactive)
- GI50 (K562): 43 µM (inactive)
- GI50 (KM12): 61.1 µM (inactive)
- GI50 (LOX IMVI): > 100 µM (inactive)
- GI50 (M14): 47.9 µM (inactive)
- GI50 (MCF7): 49.7 µM (inactive)
- GI50 (MDA-MB-231): 65.6 µM (inactive)
- GI50 (MDA-MB-435): 55.5 µM (inactive)
- GI50 (MDA-N): 68.2 µM (inactive)
- GI50 (MOLT-4): 35.7 µM (inactive)
- GI50 (Malme-3M): 32.4 µM (inactive)
- GI50 (NCI-H226): > 100 µM (inactive)
- GI50 (NCI-H23): 50.4 µM (inactive)
- GI50 (NCI-H460): 49.5 µM (inactive)
- GI50 (NCI-H522): 86.7 µM (inactive)
- GI50 (NCI/ADR-RES): 33 µM (inactive)
- GI50 (OVCAR-3): 29.9 µM (inactive)
- GI50 (OVCAR-4): 52.5 µM (inactive)
- GI50 (OVCAR-5): > 100 µM (inactive)
- GI50 (OVCAR-8): 66.8 µM (inactive)
- GI50 (PC-3): 43.3 µM (inactive)
- GI50 (RPMI-8226): 36.8 µM (inactive)
- GI50 (RXF 393): 37.6 µM (inactive)
- GI50 (SF-268): > 100 µM (inactive)
- GI50 (SF-295): 55.6 µM (inactive)
- GI50 (SF-539): > 100 µM (inactive)
- GI50 (SK-MEL-28): > 100 µM (inactive)
- GI50 (SK-MEL-2): 66.5 µM (inactive)
- GI50 (SK-MEL-5): 11.4 µM (inactive)
- GI50 (SN12C): > 100 µM (inactive)
- GI50 (SNB-19): > 100 µM (inactive)
- GI50 (SNB-75): > 100 µM (inactive)
- GI50 (SR): 47.9 µM (inactive)
- GI50 (SW-620): > 100 µM (inactive)
- GI50 (T47D): 20.1 µM (inactive)
- GI50 (TK-10): 78.7 µM (inactive)
- GI50 (U-251): > 100 µM (inactive)
- GI50 (UACC-257): 28.6 µM (inactive)
- GI50 (UACC-62): 87.3 µM (inactive)
- GI50 (UO-31): 28.3 µM (inactive)

Compound: CC1OC(c2ccc3c(OCc4ccccc4)cccc3c2O)CC(OCc2ccccc2)[C@H]1OCc1ccccc1 (some centres not stated)
- GI50 (786-0): > 10 µM (inactive)
- GI50 (A549): > 10 µM (inactive)
- GI50 (CAKI-1): > 10 µM (inactive)
- GI50 (CCRF-CEM): > 10 µM (inactive)
- GI50 (COLO 205): > 10 µM (inactive)
- GI50 (DU-145): > 10 µM (inactive)
- GI50 (EKVX): > 10 µM (inactive)
- GI50 (HCC 2998): > 10 µM (inactive)
- GI50 (HCT-15): > 10 µM
- GI50 (HL-60): > 10 µM (inactive)
- GI50 (HOP-62): > 10 µM (inactive)
- GI50 (HT-29): > 10 µM (inactive)
- GI50 (IGROV-1): > 10 µM (inactive)
- GI50 (K562): > 10 µM (inactive)
- GI50 (KM12): > 10 µM (inactive)
- GI50 (M14): > 10 µM (inactive)
- GI50 (MCF7): > 10 µM (inactive)
- GI50 (MDA-MB-231): > 10 µM (inactive)
- GI50 (MDA-N): > 10 µM (inactive)
- GI50 (MOLT-4): > 10 µM (inactive)
- GI50 (Malme-3M): > 10 µM (inactive)
- GI50 (NCI-H23): > 10 µM (inactive)
- GI50 (OVCAR-8): > 10 µM (inactive)
- GI50 (PC-3): > 10 µM (inactive)
- GI50 (RPMI-8226): > 10 µM (inactive)
- GI50 (RXF 393): > 10 µM (inactive)
- GI50 (SF-268): > 10 µM (inactive)
- GI50 (SF-295): > 10 µM (inactive)
- GI50 (SK-MEL-28): > 10 µM (inactive)
- GI50 (SK-MEL-5): > 10 µM (inactive)
- GI50 (SK-OV-3): > 10 µM (inactive)
- GI50 (SN12C): > 10 µM (inactive)
- GI50 (SNB-75): > 10 µM (inactive)
- GI50 (SW-620): > 10 µM (inactive)
- GI50 (T47D): > 10 µM (inactive)
- GI50 (TK-10): > 10 µM (inactive)
- GI50 (UACC-257): > 10 µM (inactive)
- GI50 (UACC-62): > 10 µM (inactive)
